The target of one assay is T1, A1 receptors (Rattus norvegicus, UniProt P25099).
T1 sequence (P25099 1-326): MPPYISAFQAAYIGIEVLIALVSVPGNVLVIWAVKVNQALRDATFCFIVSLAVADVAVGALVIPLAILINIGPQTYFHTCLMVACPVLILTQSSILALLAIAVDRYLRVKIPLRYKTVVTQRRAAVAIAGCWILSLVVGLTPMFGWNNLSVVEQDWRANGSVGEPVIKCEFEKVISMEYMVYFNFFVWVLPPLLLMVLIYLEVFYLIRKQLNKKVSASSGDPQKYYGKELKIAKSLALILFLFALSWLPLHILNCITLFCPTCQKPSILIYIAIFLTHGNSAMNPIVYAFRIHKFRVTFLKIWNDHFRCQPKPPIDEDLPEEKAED
The assay is described as follows: biochemical. In kind it is binding. To be noted: for inhibition at 100 µM: 10^-4 M, read-out: displacement of specific binding rA1.

The next assay has as its target T2, A2a receptors (Rattus norvegicus, UniProt P30543).
T2 construct: Displacement of specific [^3 H]; from tissue; host or cells: rat striatal membranes
The assay is described as follows: radioligand binding, displacement of specific [3H]CGS 21680 binding in rat striatal membranes. To be noted: for inhibition at 100 µM: 10^-4 M.

Another assay addresses T3, human A3 receptors (Homo sapiens, UniProt P0DMS8).
T3 construct: expressed in transfected cells; host or cells: HEK-293 cells (membranes)
T3 sequence (P0DMS8 1-318): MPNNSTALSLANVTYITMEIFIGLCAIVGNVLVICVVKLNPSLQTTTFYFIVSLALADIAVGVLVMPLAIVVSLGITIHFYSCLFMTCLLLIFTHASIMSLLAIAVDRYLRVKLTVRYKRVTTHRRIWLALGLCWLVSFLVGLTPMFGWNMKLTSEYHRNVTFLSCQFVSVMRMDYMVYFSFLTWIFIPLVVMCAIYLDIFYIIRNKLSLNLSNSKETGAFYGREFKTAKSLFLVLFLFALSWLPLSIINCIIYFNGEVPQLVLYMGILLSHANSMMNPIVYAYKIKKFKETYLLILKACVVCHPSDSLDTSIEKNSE
Description: radioligand binding, displacement of specific [125I]AB-MECA binding at human A3 receptors expressed in HEK-293 cells. The settings on record: for Ki: [125I]AB-MECA; for inhibition at 100 µM: 10^-4 M; for inhibition at 10 µM: 10^-5 M, read-out: % inhibition hA3.

Setting [1] is: Table 15, [3H]PIA, rat brain membranes, read-out: Ki rA1.
The mark [2] stands for this setting: Table 15, [3H]CGS 21680, rat striatal membranes, read-out: Ki rA2A.
The mark [3] stands for this setting: Table 15, HEK membranes, read-out: Ki hA3.
The mark [4] stands for this setting: Table 7, [3H]PIA, rat brain membranes, read-out: Ki (rA1).
Setting [5] is: Table 16, [3H]R-PIA, rat brain membranes, read-out: Ki rA1.
Where [6] appears, read: Table 16, HEK membranes, read-out: Ki hA3.
Setting [7] is: Table 7, read-out: displacement of specific binding rA2A.
[8] abbreviates: Table 7, read-out: displacement of specific binding hA3.
Setting [9] is: Table 6, [3H]PIA, rat brain membranes, read-out: K2 (rA1).
Setting [10] is: Table 6, [3H]CGS 21680, rat striatal membranes, read-out: K2 (rA2a).
[11] abbreviates: Table 6, HEK-293 membranes, read-out: K2 (hA3).
Where [12] appears, read: Table 9, [3H]PIA, rat brain membranes, read-out: Ki rA1.
Where [13] appears, read: Table 9, HEK membranes, read-out: Ki hA3.
The mark [14] stands for this setting: Table 3, HEK-293 membranes, read-out: Ki hA3.
The mark [15] stands for this setting: brain membranes, read-out: K2 (rA1).

Read-outs that look alike come from different tables or passages of the source.

T2 sequence (P30543 whole entry): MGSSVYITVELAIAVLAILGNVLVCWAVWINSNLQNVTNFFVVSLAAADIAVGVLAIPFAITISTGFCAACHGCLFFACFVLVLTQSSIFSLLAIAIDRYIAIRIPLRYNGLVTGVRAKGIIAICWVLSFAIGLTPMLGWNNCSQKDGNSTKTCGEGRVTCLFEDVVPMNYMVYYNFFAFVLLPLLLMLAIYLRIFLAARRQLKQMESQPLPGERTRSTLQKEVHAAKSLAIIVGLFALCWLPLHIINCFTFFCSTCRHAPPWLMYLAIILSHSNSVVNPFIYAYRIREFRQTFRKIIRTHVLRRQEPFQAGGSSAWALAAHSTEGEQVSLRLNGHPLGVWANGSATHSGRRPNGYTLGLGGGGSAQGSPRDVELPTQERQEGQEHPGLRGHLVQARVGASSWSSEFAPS
Description for A1 receptors: ^a Displacement of specific [^3 H] PIA binding in rat brain
percentage of specific binding displaced at 100 μM.
Description for A2a receptors: ^b Displacement of specific [^3 H]
or as a percentage of specific binding displaced at 100 μM.
Description for human A3 receptors: A3 receptors expressed in HEK293 cells, in membranes, expressed as
binding displaced at 100 μM.

With `CC(C)(C)C(=O)Nc1nc2ccc(Cl)cc2c2nc(-c3ccco3)nn12` [Compound 149, 9-Chloro-2-(2-furyl)-5-trimethylacetylamino[1,2,4]triazolo [1,5-c]quinazoline], the Ki at A1 receptors (setting [1]) was 205 ± 20 nM; at A2a receptors (setting [2]), 60 nM; at human A3 receptors (setting [3]), 244 ± 6 nM. At human A3 receptors (Table 15, ratio of Ki), the rA1/hA3 was 0.84.

In the case of `COc1cc2c(c(O)c1OC)c(=O)c1ccccc1n2C` [Compound 51, 1-hydroxy-2,3-dimethoxy-10-methyl-9(10H)-acridinone, reference compound], the Ki at A1 receptors (setting [4]) amounted to 12700 ± 1200 nM; at A2a receptors (Table 7, [3H]CGS 21680, rat striatal membranes, read-out: Ki (rA2A)), 6470 ± 1900 nM. For the same compound, the inhibition at 100 µM on human A3 receptors (Table 7, read-out: % of specific binding displaced hA3) was 63 ± 7%.

`O=C(C=Cc1ccccc1)Nc1nc2ccc(Cl)cc2c2nc(-c3ccco3)nn12` [Compound 161]: the Ki turned out to be 282 ± 71 nM on A1 receptors (setting [5]); 59.8 ± 13.4 nM at A2a receptors (Table 16, [3H]CGS 21680, rat striatal membranes, read-out: Ki rA2A); 60 ± 6.3 nM on human A3 receptors (setting [6]).

On to `COc1ccc2c(c1)C(=O)[C@H](O)[C@@H](C#Cc1ccccc1)O2` (relative stereo) [Compound 16], for which the Ki was determined as 50300 ± 17000 nM at A1 receptors (Table 4, [3H]PIA, rat brain membranes, read-out: Ki rA1) and 8170 nM at human A3 receptors (Table 4, HEK-293 membranes, read-out: Ki hA3). The inhibition at 100 µM on A2a receptors (Table 4, read-out: displacement of specific binding rA2a) is less than 10%. The same compound had a rA1/hA3 on human A3 receptors of 6.2.

On to `COc1cc2c3c(c1)c1cc4c(cc1c(=O)n3CC2)OCO4` [Compound 47, oxogalanthine lactam, reference compound], for which the Ki on A1 receptors (setting [4]) was 5550 ± 830 nM. Also, the inhibition at 100 µM at A2a receptors (setting [7]) and on human A3 receptors (setting [8]) was less than 10% throughout.

For `CC(=O)Oc1cc(OC(C)=O)c2c(=O)c(OC(C)=O)c(-c3ccccc3)oc2c1` [Compound 34, 3,5,7-triacetoxyflavone], the results for the Ki on A1 receptors (setting [9]), at A2a receptors (setting [10]) and on human A3 receptors (setting [11]) were 11600 ± 4400 nM, 56500 ± 9500 nM and 17500 ± 2000 nM, respectively.

Turning to `NCCCC(=O)Nc1nc2ccc(Cl)cc2c2nc(-c3ccco3)nn12` [Compound 155], the Ki at A1 receptors (setting [1]) came out at 11.3 ± 2.4 nM; at A2a receptors (setting [2]), 14 nM; on human A3 receptors (setting [3]), 15.2 ± 6.6 nM.

Turning to `COc1ccc(-c2oc3cc(OC)cc(OC)c3c(=O)c2OC)c(OC)c1` [Compound 38, 2',3,4',5,7-pentamethyloxyflavone], the Ki at A1 receptors (setting [9]) was 27600 ± 7500 nM; on A2a receptors (setting [10]), 46700 ± 2700 nM; on human A3 receptors (setting [11]), 2650 nM.

As to `CCOC(=O)C1=C(C)NC(C)=C(C(=O)OC)C1c1ccc2c(c1)OCO2` (racemic) [Compound 73, 3-methyl-5-ethyl-2,6-dimethyl-4-[3,4-(methylenedioxy)phenyl]-1,4(R,S)-dihydropyridine-3,5-dicarboxylate], the Ki at A1 receptors (setting [12]) was determined as 3660 nM; on A2a receptors (Table 9, [3H]CGS 21680, rat striatal membranes, read-out: Ki rA2A), 5270 nM; at human A3 receptors (setting [13]), 4580 nM.

As for `COc1c(O)cc2oc(-c3ccc(O)cc3)cc(=O)c2c1O` [Compound 32, hispidulin, reference compound], the Ki at A1 receptors (setting [9]) was determined as 1610 ± 290 nM; at A2a receptors (striatal membranes, read-out: K2 (rA2a)), 6480 ± 650 nM. On human A3 receptors (Table 6), the inhibition at 10 µM is 63 ± 2%.

In the case of `O=C(Nc1nc2ccc(Cl)cc2c2nc(-c3ccco3)nn12)c1ccccc1` [Compound 151, 5-Benzoylamino-9-chloro-2-(2-furyl)[1,2,4]triazolo[1,5-c]quinazoline], the Ki is 665 ± 82 nM on A1 receptors (setting [1]), 349 ± 42 nM at A2a receptors (setting [2]) and 4.05 ± 1.39 nM on human A3 receptors (setting [3]). Further, the rA1/hA3 at human A3 receptors (Table 15, ratio of Ki) is 164. Further, the rA2A/hA1 on human A3 receptors (Table 15, ratio of Ki) came out at 86.

On to `CCOc1ccc(-c2oc3cc(OCC)cc(O)c3c(=O)c2OCC)c(OCC)c1` [Compound 7, 2',4',3,7-Tetraethoxy-5-hydroxymorin], for which the inhibition at 100 µM on A1 receptors (Table 3) is less than 10%; on A2a receptors (Table 3, read-out: displacement of specific binding rA2a), less than 10%. Besides, the Ki on human A3 receptors (setting [14]) worked out at 4830 ± 1400 nM. At human A3 receptors (Table 3, ratio of Ki), the rA1/hA3 is listed as greater than 40.

In the case of `CCCC(=O)Nc1nc2ccc(Cl)cc2c2nc(-c3ccco3)nn12` [Compound 147, 5-Butyrylamino-9-chloro-2-(2-furyl)[1,2,4]triazolo[1,5-c]quinazoline], the Ki was found to be 32.5 ± 9.4 nM at A1 receptors (setting [1]), 4 nM on A2a receptors (setting [2]) and 14.6 ± 2.8 nM on human A3 receptors (setting [3]). On human A3 receptors, this compound gave a rA1/hA3 of 2.2.

`Oc1cc2c(cc1O)[C@@H]1c3ccc(O)c(O)c3OC[C@]1(O)C2` [Compound 50, hematoxylin, reference compound]: at A1 receptors (setting [4]), the Ki was 3100 ± 600 nM. The inhibition at 100 µM is 28 ± 2% at A2a receptors (Table 7, read-out: % of specific binding displaced rA2A) and less than 10% at human A3 receptors (setting [8]).

On to `CC(C)(C)OC(=O)NCCCC(=O)Nc1nc2ccc(Cl)cc2c2nc(-c3ccco3)nn12` [Compound 154], for which the Ki on A1 receptors (setting [1]) was found to be 91.3 ± 13.2 nM; at A2a receptors (setting [2]), 173 nM; on human A3 receptors (setting [3]) it was 32 nM.

As to `COC1C=CC23c4cc5c(cc4C[N+](C)(CC2OC(C)=O)C3C1)OCO5` (stereo not drawn) [Compound 48, acetylhaemanthine methiodide, reference compound], the Ki at A1 receptors (setting [4]) is 52500 ± 3700 nM. For the same compound, the inhibition at 100 µM at A2a receptors (setting [7]) and at human A3 receptors (setting [8]) was less than 10% in each case.

Consider `COc1ccc(-c2cc(=O)c3c(O)cc(OC)cc3o2)cc1` [Compound 30, reference compound], for which the inhibition at 100 µM was less than 10% on A1 receptors (Table 6) and less than 10% on A2a receptors (Table 6, read-out: displacement of specific binding rA2a). Also, at human A3 receptors (Table 6), the inhibition at 10 µM turned out to be 69 ± 7%.

As for `COc1ccc(-c2cc(=O)c3c(O)cc(C)cc3o2)cc1` [Compound 29, reference compound], the Ki on A1 receptors (setting [15]) stood at 3400 ± 350 nM; on A2a receptors (setting [10]) it was 28000 ± 7350 nM; on human A3 receptors (setting [11]), 6700 ± 1780 nM.

As to `COc1c2ccoc2cc2oc(/C=C/C=Cc3ccccc3)cc(=O)c12` [Compound 22, 4-methoxy-7-phenylbutadienyl visnagin], the inhibition at 100 µM at A1 receptors (Table 5) was less than 10%; at A2a receptors (Table 5, read-out: displacement of specific binding rA2a) it was less than 10%; on human A3 receptors (Table 5, read-out: displacement of specific binding hA3), less than 10%.

`CCOC(=O)c1c(C)nc(-c2ccccc2)c(C(=O)OCc2ccccc2)c1C#Cc1ccccc1` [B]: on A1 receptors (Table 11, [3H]PIA, rat brain membranes, read-out: Ki rA1), the Ki turned out to be 7010 ± 1980 nM. Moreover, on A2a receptors (Table 11, read-out: % inhibition rA2A), the inhibition at 100 µM was determined as 43 ± 2%. This compound also showed a rA1/hA3 at human A3 receptors of 2.6.

On to `COCCOC(=O)C1=C(C)NC(C)=C(C(=O)OC(C)C)C1c1cccc([N+](=O)[O-])c1` (stereo not drawn) [Compound 64, reference compound], for which the Ki at A1 receptors (setting [12]) is 20100 nM; at human A3 receptors (setting [13]) it was 8470 nM. Further, the “greater affinity to A1 than A2a adenosine receptors” value on A1 receptors (selectivity in words) is recorded as “greater affinity to A1 adenosine receptors than A2a receptors”. Besides, the “greater affinity for A3 than A1 or A2a adenosine receptors” value at human A3 receptors (selectivity in words) was “greater affinity for A3 adenosine receptors than A1 or A2a adenosine receptors”.

`O=C(Cc1ccc([N+](=O)[O-])cc1)Nc1nc2ccc(Cl)cc2c2nc(-c3ccco3)nn12` [Compound 162]: the Ki on A1 receptors (setting [5]) stood at 28 nM; on human A3 receptors (setting [6]), 8.7 ± 0.97 nM.

In the case of `CCCOc1cc(OCCC)c2c(=O)c(OCCC)c(-c3ccccc3)oc2c1` [Compound 4, 3,5,7-Tripropyloxyflavone], the Ki on A1 receptors (Table 3, [3H]PIA, rat brain membranes, read-out: Ki rA1) was 1100 ± 200 nM; on human A3 receptors (setting [14]) it was 317 nM.

As for `COc1ccc(-c2cc(=O)c3c(OC)c(OC)c(OC)cc3o2)cc1` [Compound 31, reference compound], the Ki on A1 receptors (setting [15]) was found to be 1290 ± 80 nM; at human A3 receptors (setting [11]), 4480 ± 140 nM.

Turning to `COC(=O)C1=C(C)NC(C)=C(C(=O)OCCCN2CCC(c3ccccc3)(c3ccccc3)CC2)C1c1cccc([N+](=O)[O-])c1` (stereo not drawn) [Compound 65, reference compound], the “greater affinity to A1 than A2a adenosine receptors” value on A1 receptors was “greater affinity to A1 adenosine receptors than A2a receptors”. On human A3 receptors, the “greater affinity for A3 than A1 or A2a adenosine receptors” value is given as “greater affinity for A3 adenosine receptors than A1 or A2a adenosine receptors”.

The values are drawn from patent US6066642A, “Dihydropyridine-, pyridine-, benzopyran-4-one- and triazoloquinazoline derivative, their preparation and their use as adenosine receptor antagonists” (priority 1998, dated 2000).
